{"source": "patent US10696707B2", "about": "“Polyene macrolide derivative” (Shionogi & Co., Ltd., priority 2014, dated 2020)", "data": [{"system": "red blood cells (5% RBC suspension)", "experiment": "Test Example 2-2: in vitro hemolytic activity test (upper limit 200 μmol/L)", "type": "cell-based", "conditions": "Test Example 2-2; hemolysis method 200 (upper concentration 200 μmol/L); 5% RBC suspension, 37° C., one hour; read-out: hemolysis IC50", "method": "Nephrotoxic potentials of the compounds of the present invention whose X is —N(R^F)—CO—X^1 and X^1 is the group represented by formula (III) and T is —N(R^a5)— were investigated by in vitro hemolytic activity test under the condition that the upper limit was 200 μmol/L as the required concentration to 50% of hemolysis (IC50).\nDefibrinated sterile blood was centrifuged at 700×g for 3 minutes and, and the supernatant was removed for 100% of red blood cells. After the cleaning with physiological saline, the washed blood cells was suspended in the medium (Earle's balanced salt sodium, bicarbonate, 0.1 g/L L-glutamine without phenol red), and was diluted by 5% (5% RBC suspension).\nThe washed blood was diluted by 5% in water for injection (solution of complete hemolysis), and was used as the indication of optical density for complete hemolysis.\nThe compounds of the present invention solution in DMSO (several and doubling dilutions starting from 10 mmol/L), DMSO as the negative control, and Amphotericin B as the positive control were used, and each 5 μL of these was added in to a well of V-form 96 well type microplate. Finally, the maximum concentration of the compounds of the present invention solution in DMSO was 200 μmol/L by adding 245 μL of the medium or 5% RBC suspension into the well.\nTwo hundred fifty μL of the solution of complete hemolysis was added into another well and the microplate was incubated at 37° C. in 5% of CO2 concentration for an hour.\nAfter the incubation, each 100 μL of supernatants in wells was collected by centrifugation of the microplate at 300×g for 5 minutes and was located on a well of flat-form 96 well type microplate. An absorbance of each supernatant was measured at wavelength of 540 nm.\nPercent hemolysis was calculated by using the followed equation. The required concentration to 50% of hemolysis (IC50) was calculated based on the percent hemolysis. […] Hemolysis (%)=(CR−VM)×100÷(VL−VR) Where:\nCR: Absorbance of 5% RBC suspension incubated with the compounds of the present invention solution in DMSO\nVM: Absorbance of medium incubated with the compounds of the present invention solution in DMSO\nVL: Absorbance of solution of complete hemolysis\nVR: Absorbance of 5% RBC suspension incubated with DMSO\nThe “>200” in the table means above IC50 value exceeded the upper concentration 200 μmol/L.", "units": {"IC50": "µM"}, "values": [{"compound": "C[C@@H]1[C@H](O)[C@@H](C)/C=C/C=C/C=C/C=C/C=C/C=C/C=C/[C@H](O[C@@H]2O[C@H](C)[C@@H](O)[C@H](N)[C@@H]2O)C[C@@H]2O[C@](O)(C[C@@H](O)C[C@@H](O)[C@H](O)CC[C@@H](O)C[C@@H](O)CC(=O)O[C@H]1C)C[C@H](O)[C@H]2NC(=O)NNC(=O)Nc1ccccn1", "note": "[I-221]", "IC50": "> 200"}, {"compound": "C[C@@H]1[C@H](O)[C@@H](C)/C=C/C=C/C=C/C=C/C=C/C=C/C=C/[C@H](O[C@@H]2O[C@H](C)[C@@H](O)[C@H](N)[C@@H]2O)C[C@@H]2O[C@](O)(C[C@@H](O)C[C@@H](O)[C@H](O)CC[C@@H](O)C[C@@H](O)CC(=O)O[C@H]1C)C[C@H](O)[C@H]2NC(=O)NNC(=S)NCCCN1CCOCC1", "note": "[I-217]", "IC50": "> 200"}, {"compound": "C[C@@H]1[C@H](O)[C@@H](C)/C=C/C=C/C=C/C=C/C=C/C=C/C=C/[C@H](O[C@@H]2O[C@H](C)[C@@H](O)[C@H](N)[C@@H]2O)C[C@@H]2O[C@](O)(C[C@@H](O)C[C@@H](O)[C@H](O)CC[C@@H](O)C[C@@H](O)CC(=O)O[C@H]1C)C[C@H](O)[C@H]2NC(=O)NNC(=O)C[C@@H](O)C(=O)O", "note": "[I-253]", "IC50": "> 200"}, {"compound": "C[C@@H]1[C@H](O)[C@@H](C)/C=C/C=C/C=C/C=C/C=C/C=C/C=C/[C@H](O[C@@H]2O[C@H](C)[C@@H](O)[C@H](N)[C@@H]2O)C[C@@H]2O[C@](O)(C[C@@H](O)C[C@@H](O)[C@H](O)CC[C@@H](O)C[C@@H](O)CC(=O)O[C@H]1C)C[C@H](O)[C@H]2NC(=O)NNC(=O)NCC(N)=O", "note": "[I-220]", "IC50": "> 200"}, {"compound": "C[C@@H]1[C@H](O)[C@@H](C)/C=C/C=C/C=C/C=C/C=C/C=C/C=C/[C@H](O[C@@H]2O[C@H](C)[C@@H](O)[C@H](N)[C@@H]2O)C[C@@H]2O[C@](O)(C[C@@H](O)C[C@@H](O)[C@H](O)CC[C@@H](O)C[C@@H](O)CC(=O)O[C@H]1C)C[C@H](O)[C@H]2NC(=O)NNC(=O)NCC(O)CCl", "note": "(stereo partly shown) [I-229]", "IC50": "> 200"}, {"compound": "CNC(=S)NNC(=O)N[C@H]1[C@@H]2C[C@@H](O[C@@H]3O[C@H](C)[C@@H](O)[C@H](N)[C@@H]3O)/C=C/C=C/C=C/C=C/C=C/C=C/C=C/[C@H](C)[C@@H](O)[C@@H](C)[C@H](C)OC(=O)C[C@H](O)C[C@H](O)CC[C@@H](O)[C@H](O)C[C@H](O)C[C@](O)(C[C@@H]1O)O2", "note": "[I-215]", "IC50": "> 200"}, {"compound": "C[C@@H]1[C@H](O)[C@@H](C)/C=C/C=C/C=C/C=C/C=C/C=C/C=C/[C@H](O[C@@H]2O[C@H](C)[C@@H](O)[C@H](N)[C@@H]2O)C[C@@H]2O[C@](O)(C[C@@H](O)C[C@@H](O)[C@H](O)CC[C@@H](O)C[C@@H](O)CC(=O)O[C@H]1C)C[C@H](O)[C@H]2NC(=O)NNC(=O)CNC(=O)Nc1cccnc1", "note": "[I-123]", "IC50": "> 200"}, {"compound": "C[C@@H]1[C@H](O)[C@@H](C)/C=C/C=C/C=C/C=C/C=C/C=C/C=C/[C@H](O[C@@H]2O[C@H](C)[C@@H](O)[C@H](N)[C@@H]2O)C[C@@H]2O[C@](O)(C[C@@H](O)C[C@@H](O)[C@H](O)CC[C@@H](O)C[C@@H](O)CC(=O)O[C@H]1C)C[C@H](O)[C@H]2NC(=O)NNC(=O)C(C)(C)CO", "note": "[I-232]", "IC50": "> 200"}, {"compound": "C[C@@H]1[C@H](O)[C@@H](C)/C=C/C=C/C=C/C=C/C=C/C=C/C=C/[C@H](O[C@@H]2O[C@H](C)[C@@H](O)[C@H](N)[C@@H]2O)C[C@@H]2O[C@](O)(C[C@@H](O)C[C@@H](O)[C@H](O)CC[C@@H](O)C[C@@H](O)CC(=O)O[C@H]1C)C[C@H](O)[C@H]2NC(=O)NNC(=O)c1ccccn1", "note": "[I-44]", "IC50": "> 200"}, {"compound": "C[C@@H]1[C@H](O)[C@@H](C)/C=C/C=C/C=C/C=C/C=C/C=C/C=C/[C@H](O[C@@H]2O[C@H](C)[C@@H](O)[C@H](N)[C@@H]2O)C[C@@H]2O[C@](O)(C[C@@H](O)C[C@@H](O)[C@H](O)CC[C@@H](O)C[C@@H](O)CC(=O)O[C@H]1C)C[C@H](O)[C@H]2NC(=O)NNc1ccc(C(F)(F)F)cn1", "note": "[I-125]", "IC50": "> 200"}]}]}
